{"source": "patent US10040839B2", "about": "“Insulin derivatives and the medical uses hereof” (Novo Nordisk A/S, priority 2014, dated 2018)", "key": {"solubilised human IR-A [1]": {"biological_target": "T1, solubilised human IR-A (Homo sapiens, UniProt P06213)", "T1 construct": "made in house; host or cells: baby hamster kidney (BHK) cells overexpressing the IR-A holoreceptor", "T1 sequence (P06213 28-746 isoform P06213-2 limits assumed)": "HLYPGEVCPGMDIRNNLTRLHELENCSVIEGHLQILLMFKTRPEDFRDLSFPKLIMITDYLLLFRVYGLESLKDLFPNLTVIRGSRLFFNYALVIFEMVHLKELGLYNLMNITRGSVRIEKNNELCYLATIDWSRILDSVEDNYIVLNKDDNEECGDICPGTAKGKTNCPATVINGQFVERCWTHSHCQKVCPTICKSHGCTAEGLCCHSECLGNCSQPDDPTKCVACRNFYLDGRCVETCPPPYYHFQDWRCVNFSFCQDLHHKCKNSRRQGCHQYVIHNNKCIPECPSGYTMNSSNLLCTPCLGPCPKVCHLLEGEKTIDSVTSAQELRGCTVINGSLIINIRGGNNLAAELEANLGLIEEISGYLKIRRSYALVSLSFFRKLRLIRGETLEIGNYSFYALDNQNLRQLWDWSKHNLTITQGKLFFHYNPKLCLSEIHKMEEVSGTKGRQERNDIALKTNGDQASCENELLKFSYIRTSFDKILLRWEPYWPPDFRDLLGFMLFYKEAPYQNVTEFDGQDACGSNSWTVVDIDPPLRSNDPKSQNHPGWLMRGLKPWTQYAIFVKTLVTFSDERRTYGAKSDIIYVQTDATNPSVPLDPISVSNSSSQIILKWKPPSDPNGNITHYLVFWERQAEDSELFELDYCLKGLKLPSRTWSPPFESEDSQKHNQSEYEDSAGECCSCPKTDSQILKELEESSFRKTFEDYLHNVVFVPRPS", "T1 sequence (P06213 763-1382 partner limits assumed)": "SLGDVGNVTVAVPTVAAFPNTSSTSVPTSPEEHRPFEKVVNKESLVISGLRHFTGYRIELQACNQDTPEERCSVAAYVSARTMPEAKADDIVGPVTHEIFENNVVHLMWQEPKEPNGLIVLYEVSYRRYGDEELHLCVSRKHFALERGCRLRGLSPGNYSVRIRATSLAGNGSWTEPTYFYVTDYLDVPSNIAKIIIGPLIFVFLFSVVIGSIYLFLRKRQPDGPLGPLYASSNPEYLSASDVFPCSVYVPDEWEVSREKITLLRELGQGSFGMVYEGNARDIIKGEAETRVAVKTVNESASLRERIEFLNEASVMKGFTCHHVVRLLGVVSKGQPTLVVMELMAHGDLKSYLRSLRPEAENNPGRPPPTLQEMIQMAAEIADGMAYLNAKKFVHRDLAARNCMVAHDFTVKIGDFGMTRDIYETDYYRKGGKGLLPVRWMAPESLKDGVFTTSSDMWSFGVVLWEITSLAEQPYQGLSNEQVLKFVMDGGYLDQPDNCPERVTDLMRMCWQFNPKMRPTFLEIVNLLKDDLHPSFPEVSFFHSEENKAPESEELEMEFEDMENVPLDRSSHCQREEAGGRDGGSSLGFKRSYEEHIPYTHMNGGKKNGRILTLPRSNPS", "experiment": "Insulin receptor affinity on solubilised receptors, SPA competition binding, 0% HSA", "conditions": "solubilised cloned human insulin receptor A isoform, % relative to human insulin"}, "solubilised human IR-A [2]": {"biological_target": "T1, solubilised human IR-A", "experiment": "Insulin receptor affinity on solubilised receptors, SPA competition binding, binding buffer with […] HSA", "conditions": "solubilised cloned human insulin receptor A isoform, % relative to human insulin"}, "[3]": {"biological_target": "T2, membrane-associated human IR-A (Homo sapiens, UniProt P06213)", "T2 construct": "expressed in transfected cells; host or cells: BHK cells stably transfected with pZem219B vector (plasma membrane preparation)", "T2 sequence (P06213 28-746 isoform P06213-2 limits assumed)": "as the sequence (P06213 28-746 isoform P06213-2 limits assumed) above", "T2 sequence (P06213 763-1382 partner limits assumed)": "as the sequence (P06213 763-1382 partner limits assumed) above", "experiment": "Insulin receptor affinity on membrane-associated receptors, SPA competition binding", "experimental": "(§1) Membrane-associated human IR and IGF-1R are purified from BHK cells stably transfected with the pZem219B vector containing either the human IR-A, IR-B or IGF-IR insert. BHK cells are harvested and homogenized in ice-cold buffer (25 mM HEPES pH 7.4, 25 mM CaCl2 and 1 mM MgCl2, 250 mg/L bacitracin, 0.1 mM Pefablock). […] The pellets are re-suspended in a minimal volume of buffer and drawn through a needle (size 23) three times before storage at −80° C. until usage.\n(§2) The relative binding affinity for either of the membrane-associated human IR-A, IR-B or IGF-1R is determined by competition binding in a SPA setup. IR assays are performed in duplicate in 96-well OptiPlates (Perkin-Elmer Life Sciences). […] Assays are terminated by centrifugation of the plate at 2000 rpm for 2 minutes and bound radioactivity quantified by counting on a TopCount NXT (Perkin-Elmer Life Sciences).\n(§3) IGF-1R assays are conducted essentially as for the IR binding assays except that membrane-associated IGF-1R and 50 pM [^125 I-Tyr31]-human IGF-1 were employed."}, "[4]": {"biological_target": "T3, membrane-associated human IGF-1R (Homo sapiens, UniProt P08069)", "T3 construct": "expressed in transfected cells; host or cells: BHK cells stably transfected with pZem219B vector (plasma membrane preparation)", "T3 sequence (P08069 31-736 limits assumed)": "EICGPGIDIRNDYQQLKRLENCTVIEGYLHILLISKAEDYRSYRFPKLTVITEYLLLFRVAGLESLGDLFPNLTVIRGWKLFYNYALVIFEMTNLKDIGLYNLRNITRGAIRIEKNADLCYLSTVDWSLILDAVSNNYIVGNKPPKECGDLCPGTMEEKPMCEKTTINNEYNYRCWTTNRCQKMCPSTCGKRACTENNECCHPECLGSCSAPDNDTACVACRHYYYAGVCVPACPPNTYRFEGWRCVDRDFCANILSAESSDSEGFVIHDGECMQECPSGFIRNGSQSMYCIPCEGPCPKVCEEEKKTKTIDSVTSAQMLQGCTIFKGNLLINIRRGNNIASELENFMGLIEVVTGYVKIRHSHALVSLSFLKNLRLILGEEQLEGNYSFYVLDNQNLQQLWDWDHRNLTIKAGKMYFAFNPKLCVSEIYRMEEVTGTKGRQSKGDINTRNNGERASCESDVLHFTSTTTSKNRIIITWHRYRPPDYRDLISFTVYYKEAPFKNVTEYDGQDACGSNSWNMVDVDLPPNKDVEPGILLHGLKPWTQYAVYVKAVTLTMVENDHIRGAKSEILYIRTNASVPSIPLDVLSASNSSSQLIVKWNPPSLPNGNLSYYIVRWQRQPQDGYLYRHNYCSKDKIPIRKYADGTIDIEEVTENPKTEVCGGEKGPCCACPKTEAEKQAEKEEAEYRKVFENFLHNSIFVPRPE", "T3 sequence (P08069 741-1367 partner limits assumed)": "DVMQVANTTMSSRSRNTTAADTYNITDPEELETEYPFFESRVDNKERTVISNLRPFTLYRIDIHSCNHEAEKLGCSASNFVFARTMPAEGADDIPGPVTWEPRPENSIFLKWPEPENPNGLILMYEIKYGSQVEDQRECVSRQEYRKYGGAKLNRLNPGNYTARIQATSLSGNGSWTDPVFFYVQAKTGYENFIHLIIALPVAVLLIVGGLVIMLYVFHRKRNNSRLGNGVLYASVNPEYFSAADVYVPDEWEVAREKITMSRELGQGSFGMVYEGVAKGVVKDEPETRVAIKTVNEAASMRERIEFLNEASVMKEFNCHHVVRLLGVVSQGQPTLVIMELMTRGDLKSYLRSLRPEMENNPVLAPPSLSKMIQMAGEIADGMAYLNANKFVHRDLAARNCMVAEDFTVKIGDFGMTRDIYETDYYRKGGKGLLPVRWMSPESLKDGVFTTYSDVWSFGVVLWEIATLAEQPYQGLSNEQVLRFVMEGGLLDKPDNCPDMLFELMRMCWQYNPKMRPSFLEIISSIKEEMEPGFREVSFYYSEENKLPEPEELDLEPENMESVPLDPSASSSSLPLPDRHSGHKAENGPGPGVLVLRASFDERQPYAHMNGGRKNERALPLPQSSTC", "experiment": "IGF-1 receptor affinity on membrane-associated receptors, SPA competition binding", "conditions": "membrane-associated cloned human IGF-1R, % relative to human insulin", "experimental": "as §1, §2, §3"}}}
{"substance": "A22K(N(Eps)-Tetradecanedioyl-2×OEG), desB27, B29R, desB30 Human Insulin [Example 17]", "values": [{"measurement": "Relative IR-A affinity (@ 0% HSA)", "setting": "solubilised human IR-A [1]", "result": 241.7, "unit": "%"}, {"measurement": "Relative IR-A affinity (@ […] HSA)", "setting": "solubilised human IR-A [2]", "result": 117.9, "unit": "%"}, {"measurement": "Relative IR-A affinity (@ 0.1% HSA)", "setting": "[3]; membrane-associated cloned human IR-A, 0.1% HSA, % relative to human insulin", "result": 117.3, "unit": "%"}, {"measurement": "IR IGF1 ratio", "setting": "[3]; ratio of IR-A to IGF-1R affinities from membrane-associated receptors", "result": 0.21}, {"measurement": "Relative IGF-1R affinity (@ 0.1% HSA)", "setting": "[4]", "result": 546.4, "unit": "%"}]}
